Data published in patent US20240343753A1, “THERAPEUTIC COMPOUNDS” (Regents of the University of Minnesota, priority 2023, published 2024).

Legend:
K562 cells = assay: 5hmC dot blot in K562 cells treated with inhibitor; assay type: cell-based, human; conditions: 5 μM compound, 24 hours, genomic DNA dot blot, normalized to DMSO
Description: Cells were grown in MEM media supplemented with 10% FBS (Gibco by Life Technologies TM, #16140-071) and AntibioticAntimycotic (Gibco by Life Technologies TM, #15240062) at 37° C. under 5% CO2. Solutions of inhibitors were prepared in dimethyl sulfoxide (DMSO) were incubated with cells at the specific concentration and duration prior to collection and extraction of genomic DNA.
For cellular assays, genomic DNA was extracted using DNA Blood/Tissue Kit, denatured, and subjected to dot blotting analysis using antibody against 5hmC (Active Motif, #39769) as previously described.^22 Briefly, 2 μg of purified DNA was denatured at 100° C. and mixed 1:1 with 2M NaOAc. DNA was loaded to the membrane, washed, and blocked with 5% NFM. Primary antibody for 5-hmC was incubated overnight and detected by fluorescence. The DNA spotted membrane was then stained with 0.02% methylene blue in 0.5 M sodium acetate (pH 5.0) for DNA loading control. The same protocol was followed for in vitro assays.
K562 cells, a TET proficient leukemia model, were treated with 5 μM of respective compound for 24 hours. Genomic DNA was extracted and 5hmC levels were quantified via dot blot (FIG. 1A and FIG. 1B).

[1] = biological target: T1, recombinant human TET1 catalytic domain (Homo sapiens, UniProt Q8NFU7); assay: In vitro TET1 activity assay, LC-MS/MS quantitation of 5hmC; assay type: biochemical; conditions: for TET inhibition (in words): TET1 catalytic domain, hemimethylated oligomer substrate, FIG. 2; for reduced hmC production in comparison to DMSO control: 30 minute incubation
T1 construct: enzymatically active catalytic domain of human TET1; purchased Active Motif 31417
T1 sequence (Q8NFU7 1418-2136 limits assumed): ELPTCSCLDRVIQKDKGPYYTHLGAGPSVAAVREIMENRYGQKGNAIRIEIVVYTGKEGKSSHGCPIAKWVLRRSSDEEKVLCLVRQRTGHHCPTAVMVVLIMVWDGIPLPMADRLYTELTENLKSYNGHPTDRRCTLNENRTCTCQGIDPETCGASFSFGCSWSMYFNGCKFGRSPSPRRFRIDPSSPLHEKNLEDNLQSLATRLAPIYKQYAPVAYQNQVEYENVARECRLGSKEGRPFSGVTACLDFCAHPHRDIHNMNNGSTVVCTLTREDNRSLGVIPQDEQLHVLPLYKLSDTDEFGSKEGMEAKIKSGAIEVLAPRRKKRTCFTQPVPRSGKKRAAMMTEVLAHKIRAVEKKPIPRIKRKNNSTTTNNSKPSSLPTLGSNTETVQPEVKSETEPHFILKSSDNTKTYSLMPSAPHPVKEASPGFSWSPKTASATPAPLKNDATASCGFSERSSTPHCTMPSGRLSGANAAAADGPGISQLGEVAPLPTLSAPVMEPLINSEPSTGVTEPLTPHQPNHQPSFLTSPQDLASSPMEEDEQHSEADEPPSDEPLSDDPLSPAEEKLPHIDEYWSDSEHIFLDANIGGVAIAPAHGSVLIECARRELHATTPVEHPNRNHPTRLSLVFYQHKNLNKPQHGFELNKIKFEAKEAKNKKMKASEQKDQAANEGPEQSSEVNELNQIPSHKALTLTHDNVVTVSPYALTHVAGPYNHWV
Description: (§1) For in vitro TET assays, 10 pmol of 16-mer hemi-methylated synthetic dsDNA oligomer designed after the Rassfla tumor suppressor gene promotor (5′-AATTAGAA[5meC]GCTCCTT3′) was incubated with 2×TET reaction buffer (50 mM HEPES [pH 7.9], 100 mM NaCl, 75 μM Fe(NH4)2(SO4)2, 2 mM ascorbate, 10 μM α-ketoglutarate, 1 mM DTT), recombinant human TET1 or TET2 catalytic domain (0.2 μg, 2.3 pmol, 115 nM) and 5% DMSO (or inhibitor in DMSO) on a 20 μL scale. Timing was achieved by withholding protein until the ‘start’ of the incubation window. Reactions were completed on a dry block at 37° C. for 30 minutes. Reactions were terminated at the ‘end’ of the incubation window by transferring reaction tubes to dry ice to snap-freeze the reaction until all replicates were completed. Upon completion, all samples were heat-inactivated at 90° C. for 10 minutes and then dried entirely in SpeedVac concentrator. Sample were then prepared for LCMS or dot blot analysis. HPLC-ESI-MS/MS quantitation of 5mC and 5hmC.
Quantitation of 5hmC is based on methodology previously described in Seiler et al., with slight modification.^21 Dried enzymatic reaction samples were reconstituted with mQ-water and spiked with 1 pmol each of 5-Methyl-2′-deoxycytidine-d3 and 5-(Hydroxymethyl)-2′deoxycytidine-d3. Nucleotide digestion enzyme mix and buffer were added per product guidelines on a 20 μL scale. Samples were digested for 60 min at 37° C. on a dry block. Following digestion, samples were filtered on nanosep 10K Omega filters. The samples were then dried entirely and resuspended in 100 μL mQ-water for offline HPLC cleanup to enrich 5hmC. An Atlantis T3 column (Waters, 4.6×150 mm, 3 μm) was eluted at a flow of 0.9 mL/min with a linear gradient previously described of 5 mM NH4CHO2 buffer, pH 4.0 (A) and MeOH (B). Fractions containing 5meC and 5hmC were collected and pooled before analysis by isotope dilution HPLC-ESI-MS/MS. Pooled samples were dried and reconstituted in 2 mM ammonium formate buffer (NH4CHO2) with a Dionex Ultimate 3000UHPLC (Thermo Fisher) interfaced with a Thermo TSQ Quantis mass spectrometer (Thermo Fisher) flowing 2 mM NH4CHO2 (A) and ACN (B) at 15 μL/min through a Zorbax SB-C18 column (Agilent, 0.5×150 mm, 3 μm) with the gradients as previously described. 5meC and 5-d3-meC eluted at 5.1 minutes while 5hmC and 5-d3-hmC eluted at 3.5 minutes. Quantitation was completed monitoring MS/MS transitions m/z 242.1 [M+H^+]→m/z 126.1 [M-deoxyribose+H^+] for 5meC, m/z 245.2 [M+H^+]→m/z 129.0 [M-deoxyribose+H^+] for 5-d3-meC, m/z 258.1 [M+H^+]→m/z 142.1 [M-deoxyribose+H^+] for 5hmC, m/z 261.1 [M+H^+]→m z 145.1 [M-deoxyribose+H^+] for 5-d3-hmC. […]
Compounds 13b and 15 were taken forward and incubated with recombinant TET1 and TET2 protein to further evaluate their potential TET inhibitory activity. The compounds 13b and 15 were taken forward and evaluated in an in vitro TET activity assay with the enzymatically active catalytic domain of human TET1 using a hemimethylated synthetic oligomer substrate. Following a 30 minute enzymatic incubation time in the presence or absence of inhibitor, the reactions were halted through denaturation, and levels of 5mC 5hmC were quantified via LCMS/MS via direct isotope dilution (Seiler, C. L., et al., Biochemistry 2018, 57 (42), 6061-6069).

[2] = biological target: T2, recombinant human TET2 catalytic domain (Homo sapiens, UniProt Q6N021); assay: In vitro TET2 activity assay, LC-MS/MS quantitation; assay type: biochemical; conditions: 30 minute incubation, FIG. 3; read-out: IC50, TET2 mediated conversion of 5mC to 5hmC
T2 construct: recombinant human TET1 or TET2 catalytic domain; purchased Active Motif 31418
Description: as §1, with “Upon completion, all samples were heat-inactivated at 90° C. for 10 minutes and then dried entirely in SpeedVac concentrator. Sample were then prepared for LCMS or dot blot analysis.” left out
Quantitation of 5hmC is based on methodology previously described in Seiler et al., with slight modification.^21 Dried enzymatic reaction samples were reconstituted with mQ-water and spiked with 1 pmol each of 5-Methyl-2′-deoxycytidine-d3 and 5-(Hydroxymethyl)-2′deoxycytidine-d3. […] Quantitation was completed monitoring MS/MS transitions m/z 242.1 [M+H^+]→m/z 126.1 [M-deoxyribose+H^+] for 5meC, m/z 245.2 [M+H^+]→m/z 129.0 [M-deoxyribose+H^+] for 5-d3-meC, m/z 258.1 [M+H^+]→m/z 142.1 [M-deoxyribose+H^+] for 5hmC, m/z 261.1 [M+H^+]→m z 145.1 [M-deoxyribose+H^+] for 5-d3-hmC. […]

| SMILES | lowered the relative levels of 5hmC (K562 cells) [%] | TET inhibition (in words) [1] | IC50 [2] [µM] | reduced hmC production in comparison to DMSO control ([1]; 10 μM inhibitor) [%] | reduced hmC production in comparison to DMSO control ([1]; 100 μM inhibitor) [%] | reduced hmC production in comparison to DMSO control ([1]; 500 μM inhibitor) [%] |
| --- | --- | --- | --- | --- | --- | --- |
| COC(=O)/C=C/C(=O)N(O)CCC#Cc1cn([C@H]2C[C@H](O)[C@@H](CO)O2)c(=O)nc1N [Compound 11, methyl (E)-4-((4-(4-amino-1-((2R,4S,5R)-4-hydroxy-5-(hydroxymethyl)-tetrahydrofuran-2-yl)-2-oxo-1,2-dihydropyrimidin-5-yl)but-3-yn-1-yl)(hydroxy)amino)-4-oxobut-2-enoate] | 30±8 | – | – | – | – | – |
| Nc1nc(=O)n([C@H]2C[C@H](O)[C@@H](CO)O2)cc1C#CCCNC(=O)/C=C/C(=O)O [Compound 14, (E)-4-((4-(4-amino-1-((2R,4S,5R)-4-hydroxy-5-(hydroxymethyl)tetrahydrofuran-2-yl)-2-oxo-1,2-dihydropyrimidin-5-yl)but-3-yn-1-yl)amino)-4-oxobut-2-enoic acid] | 26±21 | – | – | – | – | – |
| Nc1nc(=O)n([C@H]2C[C@H](O)[C@@H](CO)O2)cc1C#CCCN(O)C(=O)/C=C/C(=O)O [Compound 15, (E)-4-((4-(4-amino-1-((2R,4S,5R)-4-hydroxy-5-(hydroxymethyl)tetrahydrofuran-2-yl)-2-oxo-1,2-dihydropyrimidin-5-yl)but-3-yn-1-yl)(hydroxy)amino)-4-oxobut-2-enoic acid] | 47±45 | dose-dependent TET inhibition | – | – | – | – |
| Nc1nc(=O)n([C@H]2C[C@H](O)[C@@H](CO)O2)cc1C#CCCN(O)C(=O)CCC(=O)O [Compound 13b, 4-((4-(4-amino-1-((2R,4S,5R)-4-hydroxy-5-(hydroxymethyl)tetrahydrofuran-2-yl)-2-oxo-1,2-dihydropyrimidin-5-yl)but-3-yn-1-yl)(hydroxy)amino)-4-oxobutanoic acid] | 55±20 | dose-dependent TET inhibition | ~1000 | 22±5 | 30±4 | 85±3 |
